Data taken from ChEMBL document CHEMBL1201862, “PubChem BioAssay data set” (2004).
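Dose response: 5 concentrations. Exposure: 48 h. Format: 96-well plates. Endpoint: linear interpolation; highest concentration if not reached. Here, GI50 denotes the concentration required for 50% inhibition of growth.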 The source made the active and inactive calls. Cut-off read from the data, not from the text of the source: active = GI50 up to about 1.1 µM and inactive = higher. Numbered stars: 1 amine (or outer) side, 2 acyl side, 3 side chain; on linkers, the order of the positions; unused ones are H or OH. Bridge positions count the residues as written; N and C are the ends. Square brackets hold non-standard residues; d marks the D form. Peptide text beside a SMILES is read from it. I, II: the chains in the order shown. Actinocin(9to1) = Cc1c2oc3c(C)ccc(C(=O)[*:1])c3nc-2c(C(=O)[*:2])c(N)c1=O; NMeH = CN[CH](Cc1c[nH]cn1)C(=O)O; Sar = CNCC(=O)O

Legend:
Experiment in all cases: growth of human tumour cells (NCI), 48 h
OVCAR-8 = tested on: OVCAR-8
NCI-H460 = tested on: NCI-H460
PC-3 = tested on: PC-3
IGROV-1 = tested on: IGROV-1
OVCAR-4 = tested on: OVCAR-4
HCT-116 = tested on: HCT-116
LOX IMVI = tested on: LOX IMVI
SW-620 = tested on: SW-620
SK-MEL-5 = tested on: SK-MEL-5
OVCAR-5 = tested on: OVCAR-5
SF-268 = tested on: SF-268
M14 = tested on: M14
EKVX = tested on: EKVX
DU-145 = tested on: DU-145
CAKI-1 = tested on: CAKI-1
SNB-19 = tested on: SNB-19
HOP-62 = tested on: HOP-62
MDA-MB-435 = tested on: MDA-MB-435
UACC-257 = tested on: UACC-257
T47D = tested on: T47D

SMILES | GI50 (OVCAR-8) | GI50 (NCI-H460) | GI50 (PC-3) | GI50 (IGROV-1) | GI50 (OVCAR-4) | GI50 (HCT-116) | GI50 (LOX IMVI) | GI50 (SW-620) | GI50 (SK-MEL-5) | GI50 (OVCAR-5) | GI50 (SF-268) | GI50 (M14) | GI50 (EKVX) | GI50 (DU-145) | GI50 (CAKI-1) | GI50 (SNB-19) | GI50 (HOP-62) | GI50 (MDA-MB-435) | GI50 (UACC-257) | GI50 (T47D)
Cc1cc2c3c(c1)S(=O)(=O)c1cc(Cl)ccc1N3CCC2 | > 100 µM (inactive) | > 100 µM (inactive) | 88.1 µM (inactive) | 84.3 µM (inactive) | 64.3 µM (inactive) | > 100 µM (inactive) | > 100 µM (inactive) | > 100 µM (inactive) | > 100 µM (inactive) | > 100 µM (inactive) | > 100 µM (inactive) | > 100 µM (inactive) | > 100 µM (inactive) | > 100 µM (inactive) | > 100 µM (inactive) | > 100 µM (inactive) | 76.7 µM (inactive) | > 100 µM (inactive) | 60.8 µM (inactive) | 
C=CCC(CC=O)(C(=O)OCC)C(=O)OCC | > 100 µM (inactive) | > 100 µM (inactive) | > 100 µM (inactive) | > 100 µM (inactive) | > 100 µM (inactive) | > 100 µM (inactive) | > 100 µM (inactive) | > 100 µM (inactive) | > 100 µM (inactive) | > 100 µM (inactive) | > 100 µM (inactive) | > 100 µM (inactive) | > 100 µM (inactive) | > 100 µM (inactive) | > 100 µM (inactive) | > 100 µM (inactive) | > 100 µM (inactive) | > 100 µM (inactive) | > 100 µM (inactive) | 
O=c1[nH]c2ccccc2c2oc(-c3ccccc3)nc12 | 22.4 µM (inactive) | > 100 µM (inactive) | > 100 µM (inactive) | > 100 µM (inactive) | 60.7 µM (inactive) | 24 µM (inactive) | 21.3 µM (inactive) | 22.9 µM (inactive) | 30.5 µM (inactive) | > 100 µM (inactive) | 21.3 µM (inactive) | > 100 µM (inactive) | > 100 µM (inactive) |  | 18.9 µM (inactive) | 26.1 µM (inactive) | 15.8 µM (inactive) | 18.4 µM (inactive) | > 100 µM (inactive) | 51.2 µM (inactive)
Cc1csc2c(=O)n(C3OC(CO)C(O)C3O)c(=O)[nH]c12 (centres undefined) | > 100 µM (inactive) | > 100 µM (inactive) | > 100 µM (inactive) | > 100 µM (inactive) | > 100 µM (inactive) | > 100 µM (inactive) | > 100 µM (inactive) | > 100 µM (inactive) | > 100 µM (inactive) | > 100 µM (inactive) | > 100 µM (inactive) | > 100 µM (inactive) | > 100 µM (inactive) | > 100 µM (inactive) | > 100 µM (inactive) | > 100 µM (inactive) | > 100 µM (inactive) | > 100 µM (inactive) | > 100 µM (inactive) | 
C=C(C1=CC(=O)C(C)(C)O1)[C@@H]1CC=C([C@@H]2CC[C@H]3[C@@]2(C)CC[C@H]2C(C)(C)C(=O)[C@H](OC(=O)CC(C)(O)CC(=O)O)C[C@]32C)[C@H](O)O1 (some centres undefined) | 13.4 µM (inactive) | 15.9 µM (inactive) | 13.2 µM (inactive) | 12.4 µM (inactive) |  | 12.9 µM (inactive) | 13.1 µM (inactive) | 10.7 µM (inactive) | 12.5 µM (inactive) | 14.5 µM (inactive) | 10.9 µM (inactive) | 13.5 µM (inactive) | 15.3 µM (inactive) | 16.7 µM (inactive) | 17.2 µM (inactive) | 25.4 µM (inactive) | 21.1 µM (inactive) | 15.1 µM (inactive) | 15.2 µM (inactive) | 
N=c1oc2c(Cl)cc(Cl)cc2cc1C(=O)Nc1ccccn1 |  | 48.3 µM (inactive) | 52 µM (inactive) |  | 58.6 µM (inactive) | 41.1 µM (inactive) |  | 43.6 µM (inactive) | > 100 µM (inactive) | > 100 µM (inactive) | 33 µM (inactive) | 33.7 µM (inactive) | 67.3 µM (inactive) | 72.4 µM (inactive) | > 100 µM (inactive) | 34.7 µM (inactive) | 16.4 µM (inactive) | 45.6 µM (inactive) | > 100 µM (inactive) | 74.8 µM (inactive)
Cc1nc(C(N)=S)sc1C(=O)CC(=O)C(=O)Nc1cccc(Cl)c1C | > 100 µM (inactive) | > 100 µM (inactive) | > 100 µM (inactive) | > 100 µM (inactive) | > 100 µM (inactive) | > 100 µM (inactive) | > 100 µM (inactive) | > 100 µM (inactive) | > 100 µM (inactive) | > 100 µM (inactive) | > 100 µM (inactive) | > 100 µM (inactive) | > 100 µM (inactive) |  | > 100 µM (inactive) | > 100 µM (inactive) | > 100 µM (inactive) | > 100 µM (inactive) | > 100 µM (inactive) | > 100 µM (inactive)
CC(NC(=O)Cc1ccccc1)NC(=O)C(C)C(=O)Nc1ccccc1 (centres undefined) | 34.8 µM (inactive) | > 100 µM (inactive) | > 100 µM (inactive) | 61.5 µM (inactive) | > 100 µM (inactive) | > 100 µM (inactive) |  | > 100 µM (inactive) | > 100 µM (inactive) | > 100 µM (inactive) | 36.6 µM (inactive) | > 100 µM (inactive) | > 100 µM (inactive) | > 100 µM (inactive) | 66.5 µM (inactive) | 24 µM (inactive) |  | > 100 µM (inactive) | > 100 µM (inactive) | > 100 µM (inactive)
O=C1OC(CS(=O)(=O)c2ccccc2)CC1O (centres undefined) | > 100 µM (inactive) | > 100 µM (inactive) | > 100 µM (inactive) | > 100 µM (inactive) | > 100 µM (inactive) | > 100 µM (inactive) | > 100 µM (inactive) | > 100 µM (inactive) | > 100 µM (inactive) | > 100 µM (inactive) | > 100 µM (inactive) | > 100 µM (inactive) | > 100 µM (inactive) | > 100 µM (inactive) | > 100 µM (inactive) | > 100 µM (inactive) | > 100 µM (inactive) | > 100 µM (inactive) | > 100 µM (inactive) | 
CCOC1CCC2C(CCC(/C=C/c3ccc(O)c4ncccc34)N2C)C1 (centres undefined) | 3.53 µM (inactive) | 7.89 µM (inactive) | 8.75 µM (inactive) | 11.4 µM (inactive) |  |  |  | 7.59 µM (inactive) | 19.7 µM (inactive) | 33.2 µM (inactive) | 6.24 µM (inactive) | 15.4 µM (inactive) | 4.98 µM (inactive) | 10.3 µM (inactive) |  | 16 µM (inactive) | 8.71 µM (inactive) |  |  | 9.86 µM (inactive)
O=C(c1ccc2ccccc2c1)C1S(=O)(=O)OCCOS1(=O)=O | > 100 µM (inactive) | > 100 µM (inactive) | > 100 µM (inactive) |  | > 100 µM (inactive) | > 100 µM (inactive) | > 100 µM (inactive) |  | > 100 µM (inactive) | > 100 µM (inactive) |  | > 100 µM (inactive) | > 100 µM (inactive) | > 100 µM (inactive) | > 100 µM (inactive) | > 100 µM (inactive) | > 100 µM (inactive) | > 100 µM (inactive) | > 100 µM (inactive) | 
CC(C)C1=CC23CCC4C(C)(C(=O)O)CCCC4(C)C2CC1C1C(=O)N(c2ccc(N4C(=O)C5C6CC7C8(C)CCCC(C)(C(=O)O)C8CCC7(C=C6C(C)C)C5C4=O)cc2)C(=O)C13 (centres undefined) | 4.89 µM (inactive) |  | 3.2 µM (inactive) |  | 10.4 µM (inactive) | 3.38 µM (inactive) |  | 8.41 µM (inactive) | 3.44 µM (inactive) | 10.3 µM (inactive) | 4.7 µM (inactive) | 4.16 µM (inactive) | 4.09 µM (inactive) | 4.71 µM (inactive) |  | 4.75 µM (inactive) | 5.12 µM (inactive) | 3.68 µM (inactive) |  | 12.1 µM (inactive)
CC(=O)O[C@H]1C(=O)[C@@]2(C)[C@H]([C@H](OC(=O)c3cccc([N+](=O)[O-])c3)[C@]3(O)C[C@H](OC(=O)[C@H](O)[C@@H](NC(=O)c4ccccc4)c4ccccc4)C(C)=C1C3(C)C)[C@]1(OC(C)=O)CO[C@@H]1C[C@@H]2O | 0.00785 µM (active) | 0.00601 µM (active) | 0.0065 µM (active) | 0.00783 µM (active) | 3.58 µM (inactive) | 0.00533 µM (active) | 0.00558 µM (active) | 0.00706 µM (active) | 0.00582 µM (active) | 0.0105 µM (active) | 0.021 µM (active) | 0.00619 µM (active) | 2.78 µM (inactive) | 0.0177 µM (active) | 0.241 µM (active) | 0.00652 µM (active) | 0.0107 µM (active) | 0.00336 µM (active) | < 0.0025 µM (active) | 
Cc1c2oc3c(C)ccc(C(=O)NC4C(=O)NC(C(C)C)C(=O)N5CCCC5C(=O)N(C)CC(=O)N(C)C(Cc5cnc[nH]5)C(=O)OC4C)c3nc-2c(C(=O)NC2C(=O)NC(C(C)C)C(=O)N3CCCC3C(=O)N(C)CC(=O)N(C)C(Cc3cnc[nH]3)C(=O)OC2C)c(N)c1=O (centres undefined) (I: TVP[Sar][NMeH] / II: TVP[Sar][NMeH]; ester I:1-I:C, II:1-II:C; linker I:N-II:N via Actinocin(9to1); configuration not given here) | > 100 µM (inactive) | 37.7 µM (inactive) | 55 µM (inactive) | 47.3 µM (inactive) | > 100 µM (inactive) |  | 20.2 µM (inactive) | 27.4 µM (inactive) | 16.9 µM (inactive) | > 100 µM (inactive) | 67.6 µM (inactive) | 68.5 µM (inactive) | > 100 µM (inactive) |  | 38.1 µM (inactive) | 45 µM (inactive) | 43.5 µM (inactive) | 63.4 µM (inactive) | > 100 µM (inactive) | 47.5 µM (inactive)
